Where two headings read alike, the source gives them in different places.
Legend:
[1] = tested on: non-small cell lung carcinoma H1299; assay: In vitro cytotoxicity, Alamar blue assay, H1299; format: cell-based, human
Experimental: (§1) Prostate cancer PC3, non-small cell lung carcinoma cells H1299, and human glioma cells U87 were purchased from the American Type Culture Collection (Rockville, Md.). OECM-1 (human gingival squamous cell carcinoma cells) was obtained from Dr C.-L. Meng (National Defense Medical College, Taiwan).^22
(§2) In preparation for in vitro cytotoxicity assays, cells were cultured at an initial density 2−5×10^4 cells per milliliter. They were maintained in a 5% CO2-humidified atmosphere at 37° C. in RPMI medium 1640 (GIBCO/BRL) containing penicillin (100 units/mL), streptomycin (100 μg/mL, GIBCO/BRL), and 5% heat-inactivated FBS. For cells grown in suspension (such as CCRF-CEM and its sublines), cytotoxicity was measured, by using XTT microculture method^23 in 96-well microtiter plates.
(§3) The cytotoxic effects of the newly synthesized compounds were determined in T-cell acute lymphocytic leukemia (CCRF-CEM) and their resistant subcell lines (CCRF-CEM/Taxol and CCRF-CEM/VBL) by the XTT assay^24 and human solid tumor cells (i.e. breast carcinoma MX-1 and colon carcinoma HCT-116) by the SRB assay^25 in a 72 h incubation using a microplate spectrophotometer as described previously.^25 After the addition of phenazine methosulfate-XTT solution, incubated at 37° C. for 6 h and absorbance at 450 and 630 nm was detected on a microplate reader (EL 340). The cytotoxicity of the newly synthesized compounds against non-small cell lung carcinoma H1299, prostate cancer PC3, oral cancer OECM-1 and glioma U87 were determined by the Alamar blue assay^26 in a 72 h incubation using a microplate spectrophotometer as described previously. After the addition of alamar blue solution, it was incubated at 37° C. for 6 h. Absorbance at 570 and 600 nm was detected on a microplate reader. IC50 values were determined from dose-effect relationship at six or seven concentrations of each drug using the CompuSyn software by Chou and Martin^27 based on the median-effect principle and plot.^28,29 Ranges given for Cisplatin were mean±SE (n=4).

glioma U87 = assay: In vitro cytotoxicity, Alamar blue assay, U87; format: cell-based, human
Experimental: as §1, §2, §3

oral cancer OECM-1 = assay: In vitro cytotoxicity, Alamar blue assay, OECM-1; format: cell-based, human
Experimental: as §1, §2, §3

prostate cancer PC3 = assay: In vitro cytotoxicity, Alamar blue assay, PC3; format: cell-based, human
Experimental: as §1, §2, §3

breast carcinoma MX-1 = assay: In vitro cytotoxicity, SRB assay, MX-1; format: cell-based, human
Description: (§4) Human colon carcinoma HCT-116 cells and human prostate adenocarcinoma PC-3 cells were obtained from American Type Culture Collection (ATCC, Rockville, Md.). Human mammary carcinoma (MX-1) tumor cells were obtained from MSKCC cell bank. The CCRF-CEM human lymphoblastic leukemia cells and their vinblastine resistant subline (CCRF-CEM/VBL, 680-fold resistance in vitro) were obtained from Dr. William Beck of the University of Illinois, Chicago, and CCRF-CEM/Taxol (330-fold resistance in vitro). Resistant cells CCRF-CEM/taxol were produced by exposing the parent cells to increasing sublethal concentration (IC50-IC90) of paclitaxel for six months.
as §2, §3

CCRF-CEM/Taxol = assay: In vitro cytotoxicity, XTT assay, CCRF-CEM/Taxol; format: cell-based, human; conditions: Table 5; for IC50: Taxol-resistant subline, XTT, 72 h, read-out: Cell Growth inhibition (IC50 μM) CCRF-CEM/Taxol; for fold of cross-resistant vs IC50 of the parent cell line, CCRF-CEM/Taxol: number in brackets
Description: as §4, §2, §3

CCRF-CEM/VBL = assay: In vitro cytotoxicity, XTT assay, CCRF-CEM/VBL; format: cell-based, human; conditions: Table 5; for IC50: vinblastine-resistant subline, XTT, 72 h, read-out: Cell Growth inhibition (IC50 μM) CCRF-CEM/VBL; for fold of cross-resistant vs IC50 of the parent cell line, CCRF-CEM/VBL: number in brackets
Description: as §4, §2, §3

[2] = tested on: human lymphoblastic leukemia (CCRF-CEM); assay: In vitro cytotoxicity, XTT assay, CCRF-CEM; format: cell-based
Description: as §4, §2, §3

colon carcinoma HCT-116 = assay: In vitro cytotoxicity, SRB assay, HCT-116; format: cell-based, human
Description: as §4, §2, §3

[3] = Homo sapiens, CCRF-CEM, Table 5, 72 h incubation, read-out: Cell Growth inhibition (IC50 μM) CCRF-CEM
[4] = Homo sapiens, NCI-H1299, Table 6, 72 h
[5] = Homo sapiens, OECM1, Table 6, 72 h
[6] = Table 5, 72 h incubation, read-out: Cell Growth inhibition (IC50 μM) CCRF-CEM
[7] = Table 7, 72 h, read-out: IC50 (μM) CCRF/CEM

SMILES	IC50 ([1]; Table 6, 72 h)	IC50 (glioma U87; Table 6, 72 h)	IC50 (oral cancer OECM-1; Table 6, 72 h)	IC50 (prostate cancer PC3; Table 6, 72 h)	IC50 (CCRF-CEM/Taxol; Homo sapiens, CCRF-CEM)	fold of cross-resistant vs IC50 of the parent cell line, CCRF-CEM/Taxol (CCRF-CEM/Taxol)	IC50 (CCRF-CEM/VBL; Homo sapiens, CCRF-CEM)	fold of cross-resistant vs IC50 of the parent cell line, CCRF-CEM/VBL (CCRF-CEM/VBL)	IC50 [2, 3]	IC50 (CCRF-CEM/Taxol)	IC50 (CCRF-CEM/VBL)	IC50 [2, 6]	further results
N.N.[Cl][Pt][Cl] [Cisplatin, reference compound]	16.5 ± 0.9 µM	54.6 ± 3.33 µM	2.44 ± 0.53 µM	4.71 ± 0.66 µM									IC50 ([1]; Table 7, 72 h): 16.5 ± 0.9 µM; IC50 (glioma U87; Table 7, 72 h): 54.6 ± 3.33 µM; IC50 (oral cancer OECM-1; Table 7, 72 h, read-out: IC50 (μM) OECM1): 2.44 ± 0.53 µM; IC50 (prostate cancer PC3; Table 7, 72 h): 4.71 ± 0.66 µM
Cc1c(CO)c(CO)c2sc3ccccc3n12 [Compound 18a, (1-Methylbenzo[d]pyrrolo[2,1-b]thiazole-2,3-diyl)dimethanol]					1.88 ± 0.007 µM	1.93 ×	1.86 ± 0.01 µM	1.91 ×	0.97 ± 0.03 µM				IC50 (breast carcinoma MX-1; Homo sapiens, Table 6, 72 h): 7.1 ± 0.037 µM; IC50 (colon carcinoma HCT-116; Homo sapiens, HCT-116, Table 6, 72 h): 4.44 ± 0.08 µM
OCc1c(CO)c2sc3ccccc3n2c1-c1ccc(F)c(F)c1 [Compound 18d, (1-(3,4-Difluorophenyl)benzo[d]pyrrolo[2,1-b]thiazole-2,3-diyl)dimethanol]					0.19 ± 0.004 µM	100 ×	0.28 ± 0.006 µM	1.47 ×	0.19 ± 0.02 µM				IC50 [1, 4]: 21.4 ± 3.74 µM; IC50 (glioma U87; Homo sapiens, Table 6, 72 h): 17.4 ± 1.86 µM; IC50 (oral cancer OECM-1; [5]): 8.48 ± 0.67 µM; IC50 (prostate cancer PC3; Homo sapiens, Table 6, 72 h): 15.2 ± 1.86 µM
OCc1c(CO)c2sc3ccccc3n2c1C1CC1 [Compound 18j, (1-Cyclopropylbenzo[d]pyrrolo[2,1-b]thiazole-2,3-diyl)dimethanol]					2.31 ± 0.0048 µM	2.37 ×	2.44 ± 0.01 µM	2.51 ×	0.97 ± 0.07 µM				IC50 [1, 4]: 13.3 ± 2.23 µM; IC50 (glioma U87; Homo sapiens, Table 6, 72 h): 28.7 ± 4.32 µM; IC50 (oral cancer OECM-1; [5]): 7.12 ± 0.95 µM; IC50 (prostate cancer PC3; Homo sapiens, Table 6, 72 h): 10.7 ± 2.29 µM
CCNC(=O)OCc1c(COC(=O)NCC)c2sc3ccccc3n2c1C [Compound 19a, (1-Methylbenzo[d]pyrrolo[2,1-b]thiazole-2,3-diyl)bis(methylene)bis(ethylcarbamate)]						1.30 ×		1.30 ×		0.45 ± 0.013 µM	0.43 ± 0.003 µM	0.33 ± 0.01 µM	
CCNC(=O)OCc1c(COC(=O)NCC)c2sc3ccccc3n2c1C1CC1 [Compound 19j, (1-Cyclopropylbenzo[d]pyrrolo[2,1-b]thiazole-2,3-diyl)bis(methylene)bis(ethylcarbamate)]	20.6 ± 1.89 µM	74.5 ± 8.7 µM	26.3 ± 4.44 µM	24.2 ± 2.96 µM		4.01 ×		3.18 ×		0.68 ± 0.004 µM	0.54 ± 0.008 µM	0.17 ± 0.03 µM	
CC(C)NC(=O)OCc1c(COC(=O)NC(C)C)c2sc3ccccc3n2c1C1CC1 [Compound 20j, (1-Cyclopropylbenzo[d]pyrrolo[2,1-b]thiazole-2,3-diyl)bis(methylene)bis(iso-propyl-carbamate)]	20.4 ± 1.65 µM	45.5 ± 6.19 µM	9.67 ± 1.06 µM	13.4 ± 0.84 µM		7.30 ×		9.00 ×		0.73 ± 0.013 µM	0.9 ± 0.011 µM	0.1 ± 0.01 µM	
CCNC(=O)OCc1c(COC(=O)NCC)c(-c2ccc(Cl)cc2)n2c1Cc1c(n(C)c3ccccc13)C2 [Compound 27d, [3-(4-Chlorophenyl)-6-methyl-6,11-dihydro-5H-indolizino[6,7-b]indole-1,2-diyl]bis(methylene)bis(ethylcarbamate)]													IC50 (breast carcinoma MX-1; Table 7, 72 h): 1.83 ± 0.082 µM; IC50 [2, 7]: 0.35 ± 0.013 µM; IC50 (colon carcinoma HCT-116; Table 7, 72 h): 1.17 ± 0.009 µM
CC(C)NC(=O)OCc1c(COC(=O)NC(C)C)c(-c2ccc(Cl)cc2)n2c1Cc1c(n(C)c3ccccc13)C2 [Compound 28d, [3-(4-Chlorophenyl)-6-methyl-6,11-dihydro-5H-indolizino[6,7-b]indole-1,2-diyl]bis(methylene) (isopropylcarbamate)]													IC50 (breast carcinoma MX-1; Table 7, 72 h): 12.39 ± 0.05 µM; IC50 [2, 7]: 0.437 ± 0.003 µM; IC50 (colon carcinoma HCT-116; Table 7, 72 h): 3.06 ± 0.067 µM

— US8703951B2, “Synthesis of 4H-benzo[D]pyrrolo[1,2-A]thiazoles and indolizino[6,7-b]indole derivatives and their use as antitumor therapeutic agents” (Academia Sinica, priority 2011, dated 2014)
